Measurements: patent US6384061B1, “Hydantoin compounds and methods related thereto” (LG Chemical Ltd., priority 2000, dated 2002)

Experiments:
Ras farnesyl transferase = biological target: T1, Ras farnesyl transferase (Homo sapiens, UniProt P49354+P49356); test: Ras farnesyl transferase inhibiting activity (filter-binding, tritium-farnesylpyrophosphate, Ras-CVLS substrate); format: biochemical; details: recombinant Ras farnesyl transferase, 30 minutes at 37° C., read-out: Ftase IC50
T1 construct: made in house
Protocol: The enzyme reaction was performed in 50 μl of 50 mM Sodium HEPES buffer solution containing 25 mmol of potassium chloride. 25 mmol of magnesium chloride, 10 mmol of DTT and 50 μmol of zinc chloride. 1.5 μmol of Ras substrate protein, 0.15 μmol of tritium-farnesylpyrophosphate and 4.5 nmol of farnesyl transferase were used.
More specifically, in the initial step, farnesyl transferase was added to the above buffer solution, reaction was maintained for 30 minutes at 37° C. and then the reaction was stopped by adding 1 ml of ethanol solution containing 1M HCl. The formed precipitates were adsorbed to GF/B filter using Hopper harvestor(Hopper #225V) for filter-binding, washed with ethanol, and then radioactivity of the dried filter was measured using LKB β counter. Enzyme titer was measured in the unsaturated state of substrate where the concentrations of Ras substrate protein and farnesyl transferase have quantitative relationship. Enzyme inhibiting activity was measured using less than 5% of total reaction solution of the compound according to the present invention dissolved in dimethylsulfoxide(DMSO) solution as a reagent. Enzyme inhibiting activity was represented by percentage of the amount of the farnesyl incorporated with the reagent to that without the reagent.

[1] = system: intracellular Ras farnesyl transferase, Rat2 cell line; test: Intracellular Ras farnesyl transferase inhibiting activity in transformed Rat2 cells (35S-methionine labelling, Y13-259 immunoprecipitation, SDS-PAGE); format: cell-based; details: Rattus norvegicus; transformed Rat2 fibroblast cell line; concentration inhibiting 50% of farnesyl binding of Ras protein; read-out: Ftase CIC50
Protocol: In the present experiment, Rat2 cell line which expresses C-Harvey-Ras protein having transforming activity and Rat2 cell line(Korean patent application No. 97-14409) which is transformed with fused protein of H-Ras substituted with polybasic lysine domain at C-terminus of K-Ras were used. The experiment was performed by the modified Declue's method(Declue. J. E. et al., Cancer Research, 1991. 51, 712). Hereinafter, the experimental method will be described in more detail.
3×10^5 cells of transformed Rat2 fibroblast cell line were sprayed on 60 mm cell cultivation dish and cultivated for 48 hours in a cell incubator at 37° C. and after 50% or more of density was reached, it was treated with a reagent. The compound according to the present invention dissolved in dimethylsulfoxide(DMSO) was used as the reagent. 1% of dimethylsulfoxide was used in both control and experimental groups. After 4 hours from the treatment of the reagent, methionine labeled with 150 μCi of radioactive isotope, ^35S per 1 ml of medium, was added and after cultivating for 20 hours, the cells were washed with physiological saline water. The cells were lysed using 1 ml of cool cell lysis buffer solution(50 mM of Sodium Herpiss buffer solution containing 5 mmol of magnesium chloride. 1 mmol of DTT, 1% NP 40, 1 mmol of EDTA, 1 mmol of PMSF, 2 μmol of leupeptin, 2 μmol of pepstatin A and 2 μmol of antipain) and the supernatant was obtained by high-velocity centrifugation of 12,000 g×5 minutes. The amount of the labeled radioisotope of the supernatent was measured and standardized to obtain a quantitative result in immunoprecipitation reaction and then. Y13-259, monoclonal antiboby specifically binding to Ras protein(Furth, M. E. et al., J. Virol, 1982, 43, 294) was added and reacted for 15 hours at 4° C. Protein A bound to goat anti-murine Immunoglobulin antibody-agarose suspension was added to the solution and reacted for 1 hour at 4° C. and then, to remove unspecific binding product, immunoprecipitates were washed with buffer solution(50 mM Tris chloride buffer solution containing 50 mmol of sodium chloride, 0.5% of sodium dioxycolate, 0.5% of NP 40 and 0.1% of SDS). The precipitates were boiled in reagent buffer solution for electrophoresis and then, electrophoresis was performed using 13.5% of SDS polyacrylamide gel. After electrophoresis, the gel was fixed and dried. Then, the gel was exposed to X-ray film, developed and printed. From the result of the experiment, intensities of band of protein with and without farnesyl of Ras protein were measured, and the concentration of reagent inhibiting 50% of farnesyl binding was defined as CIC50, an intracellular Ras farnesyl transferase inhibiting activity.

[2] = biological target: T2, Geranylgeranyl transferase (Bos taurus, UniProt P29702+Q5EAD5); test: Geranylgeranyl transferase inhibiting activity (geranylgeranyl pyrophosphate, Ras-CVIL substrate); format: biochemical; details: geranylgeranyl transferase purified from bovine brain, read-out: GGtase IC50
T2 construct: Geranylgeranyl transferase was purified from bovine brain; from tissue; host or cells: bovine brain
Protocol: To evaluate the selective enzyme inhibiting activity of the compound according to the present invention, inhibiting activity on geranylgeranyl transferase was measured. Geranylgeranyl transferase was purified from bovine brain with the method modified from Schber's method(Schber et al., J. Biol. Chem. 1990, 265, 14701). and substantially the same experiment as that of farnesyl transferase was performed using geranylgeranyl pyrophosphate and Ras-CVIL substrate protein under the similar condition to farnesyl transferase reaction.

## CC1(c2cccc3ccccc23)C(=O)N(CCCn2ccnc2)C(=O)N1Cc1ccc(C#N)cc1 (stereo not drawn) [Compound 33, 4-[3-(3-imidazol-1-yl-propyl)-5-methyl-5-naphthalen-1-yl-2,4-dioxo-imidazolidin-1-ylmethyl]-benzonitrile]
Ras farnesyl transferase
  IC50: 1300 nM
[1]
  IC50: < 20 µM
[2]
  IC50: > 10 µM

## CSCCC(NC(=O)CN1C(=O)N(CCCc2c[nH]cn2)C(=O)C1(C)c1cccc2ccccc12)C(=O)O (stereo not drawn) [Compound 2, 2-(2-{3-[3-(1H-imidazol-4-yl)-propyl]-5-methyl-5-naphthalen-1-yl-2,4-dioxo-imidazolidin-1-yl}-acetylamino)-4-methylsulfanyl-butyric acid]
Ras farnesyl transferase
  IC50: 0.8 nM
[1]
  IC50: 5 µM
[2]
  IC50: 3.4 µM

## CSCCC(NC(=O)CN1C(=O)N(Cc2cncn2Cc2ccc(C#N)cc2)C(=O)C1(C)c1cccc2ccccc12)C(=O)O (stereo not drawn) [Compound 8, 2-(2-{3-[3-(4-cyano-benzyl)-imidazol-4-yl-methyl]-5-methyl-5-naphthalen-1-yl-2,4-dioxo-imidazolidin-1-yl}-acetylamino)-4-methylsulfanyl-butyric acid]
Ras farnesyl transferase
  IC50: 14 nM
[1]
  IC50: < 20 µM
[2]
  IC50: > 10 µM

## CC1(c2cccc3ccccc23)C(=O)N(CCCn2ccnc2)C(=O)N1Cc1ccc(CNS(C)(=O)=O)cc1 (stereo not drawn) [Compound 37, N-{4-[3-(3-imidazol-1-yl-propyl)-5-methyl-5-naphthalen-1-yl-2,4-dioxo-imidazolidin-1-ylmethyl]-benzyl}-methanesulfonamide]
Ras farnesyl transferase
  IC50: 350 nM
[1]
  IC50: < 20 µM
[2]
  IC50: > 10 µM

## CSCCC(NC(=O)CN1C(=O)N(CCn2ccnc2)C(=O)C1(C)c1cccc2ccccc12)C(=O)O (stereo not drawn) [Compound 15, 2-{2-[3-(2-imidazol-1-yl-ethyl)-5-methyl-5-naphthalen-1-yl-2,4-dioxo-imidazolidin-1-yl]-acetylamino}-4-methylsulfanyl-butyric acid]
Ras farnesyl transferase
  IC50: 2 nM
[1]
  IC50: < 20 µM
[2]
  IC50: > 10 µM

## CC1(c2cccc3ccccc23)C(=O)N(CCCn2ccnc2)C(=O)N1Cc1ccc(C(=O)N2CCOCC2)cc1 (stereo not drawn) [Compound 40]
Ras farnesyl transferase
  IC50: 1400 nM
[1]
  IC50: < 20 µM
[2]
  IC50: > 10 µM

## COC(=O)C(CCSC)NC(=O)CN1C(=O)N(CCCc2cncn2Cc2ccc(C#N)cc2)C(=O)C1(C)c1cccc2ccccc12 (stereo not drawn) [Compound 57, 2-[2-(3-{3-[3-(4-cyanobenzyl)-3H-imidazol-4-yl]-propyl}-5-methyl-5-naphthalen-1-yl-2,4-dioxo-imidazolidin-1-yl)acetylamino]-4-methylsulfanyl-butyric acid methyl ester]
Ras farnesyl transferase
  IC50: 16 nM
[1]
  IC50: 400 µM
[2]
  IC50: > 10 µM

## O=C(OCc1ccccc1)N1CCC(Cn2cncc2CN2C(=O)CN(c3cccc4ccccc34)C2=O)CC1 [Compound 74, 4-[5-(3-naphthalen-1-yl-2,5-dioxo-imidazolidin-1-ylmethyl)-imidazol-1-ylmethyl]-piperidine-1-carboxylic acid benzyl ester]
Ras farnesyl transferase
  IC50: 4000 nM
[1]
  IC50: < 50 µM
[2]
  IC50: > 10 µM

## CC1(c2cccc3ccccc23)C(=O)N(CCCn2ccnc2)C(=O)N1Cc1cccc(C#N)c1 (stereo not drawn) [Compound 32, 3-[3-(3-imidazol-1-yl-propyl)-5-methyl-5naphthalen-1-yl-2,4-dioxo-imidazolidin-1-ylmethyl]-benzonitrile]
Ras farnesyl transferase
  IC50: 92 nM
[1]
  IC50: < 20 µM
[2]
  IC50: > 10 µM

## COC(=O)C(CCSC)NC(=O)CN1C(=O)N(CCCc2c[nH]cn2)C(=O)C1(C)c1cccc2ccccc12 (stereo not drawn) [Compound 1, 2-(2-{3-[3-(1H-imidazol-4-yl)-propyl]-5-methyl-5-naphthalen-1-yl-2,4-dioxo-imidazolidin-1-yl}-acetylamino)-4-methylsulfanyl-butyric acid methyl ester]
Ras farnesyl transferase
  IC50: 500 nM
[1]
  IC50: 1 µM
[2]
  IC50: > 10 µM

## CC1(c2cccc3ccccc23)C(=O)N(CCCc2cnc[nH]2)C(=O)N1CC(=O)N1CCS(=O)(=O)C1 (stereo not drawn) [Compound 11]
Ras farnesyl transferase
  IC50: > 50000 nM
[1]
  IC50: < 20 µM
[2]
  IC50: > 10 µM

## CC1(c2cccc3ccccc23)C(=O)N(CCCc2cnc[nH]2)C(=O)N1CC(=O)N1CCSC1 (stereo not drawn) [Compound 10, 3-[3-(3H-imidazol-4-yl)-propyl]-5-methyl-5-naphthalen-1-yl-1-(2-oxo-2-thiazolidin-3-yl-ethyl)-imidazolidin-2,4-dione]
Ras farnesyl transferase
  IC50: > 50000 nM
[1]
  IC50: < 20 µM
[2]
  IC50: > 10 µM

## O=C1CN(c2cccc3ccccc23)C(=O)N1CCCn1ccnc1 [Compound 87, 3-(3-imidazol-1-yl-propyl)-1-naphthalen-1-yl-imidazolidin-2,4-dione]
Ras farnesyl transferase
  IC50: 5000 nM
[1]
  IC50: > 50 µM
[2]
  IC50: > 10 µM

## N#Cc1ccc(Cn2cncc2CN2C(=O)C(CC(=O)N3CCOCC3)N(Cc3cccc4ccccc34)C2=O)cc1 (stereo not drawn) [Compound 80, 4-{5-[4-(2-morpholin-4-yl-2-oxo-ethyl)-3-naphthalen-1-ylmethyl-2,5dioxo-imidazolidin-1-ylmethyl]-imidazol-1-ylmethyl}-benzonitrile]
Ras farnesyl transferase
  IC50: 90 nM
[1]
  IC50: < 10 µM
[2]
  IC50: > 10 µM

## CC1(c2cccc3ccccc23)C(=O)N(CCCc2cnc[nH]2)C(=O)N1CC(=O)NC(Cc1cccs1)C(=O)O (stereo not drawn) [Compound 9, 2-(2-{3-[3-(3H-imidazol-4-yl)-propyl]-5-methyl-5-naphthalen-1-yl-2,4-dioxo-imidazolidin-1-yl}-acetamino)-3-thiophen-2-yl-propionic acid]
Ras farnesyl transferase
  IC50: 15 nM
[1]
  IC50: < 1 µM
[2]
  IC50: 80 µM

## N#Cc1ccc(Cn2cncc2CN2C(=O)CN(c3cccc4ccccc34)C2=O)cc1 [Compound 72, 4-[5-(3-naphthaten-1-yl-2,5-dioxo-imidazolidin-1-ylmethyl)-imidazol-1-ylmethyl]-benzonitrile]
Ras farnesyl transferase
  IC50: 20 nM
[1]
  IC50: < 20 µM
[2]
  IC50: > 10 µM

## CC1(c2cccc3ccccc23)C(=O)N(CCCc2cncn2Cc2ccc(C#N)cc2)C(=O)N1Cc1cccc(C#N)c1 (stereo not drawn) [Compound 54, 4-(5-{3-[3-(3-cyano-benzyl)-4-methyl-4-naphthalen-1-yl-2,5-dioxo-imidazolidin-1-yl]-propyl}-imidazol-1-ylmethyl)-benzonitrile]
Ras farnesyl transferase
  IC50: 50 nM
[1]
  IC50: < 20 µM
[2]
  IC50: > 10 µM

## CC1(c2cccc3ccccc23)C(=O)N(CCCc2cnc[nH]2)C(=O)N1CC(=O)NC(CCS(C)(=O)=O)C(=O)O (stereo not drawn) [Compound 13, 2-(2-{3-[3-(3H-imidazol-4-yl)-propyl]-5-methyl-5-naphthalen-1-yl-2,4-dioxo-imidazolidin-1-yl}-acetylamino)-4-methylsulfonyl-butyric acid]
Ras farnesyl transferase
  IC50: 1.5 nM
[1]
  IC50: < 20 µM
[2]
  IC50: > 10 µM

## COCCN(C)C(=O)CC1C(=O)N(Cc2cncn2Cc2ccc(Br)cc2)C(=O)N1Cc1cccc2ccccc12 (stereo not drawn) [Compound 83, 2-{1-[3-(4-bromo-benzyl)-3H-imidazol-4-ylmethyl]-3-naphthalen-1-ylmethyl-2,5dioxo-imidazolidin-4-yl}-N-(2-methoxy-ethyl)-N-methyl-acetamide]
Ras farnesyl transferase
  IC50: 1500 nM
[1]
  IC50: > 50 µM
[2]
  IC50: > 10 µM
